Measurements taken from patent US11661400B2, “NADPH oxidase inhibitors, pharmaceutical composition comprising the same, and application thereof” (TAIWANJ PHARMACEUTICALS CO., LTD., priority 2018, dated 2023).

Experiments:
NOX4 = target: T1, NOX4 (Homo sapiens, UniProt Q9NPH5); experiment: NOX4 HEK293 overexpression cell-based assay (Amplex Red H2O2); conditions: HEK293 cells stably overexpressing NOX4, DMSO = 0, GKT137831 = 100; for inhibition at 1 µM: HEK293, 1000 nM; for inhibition at 0.1 µM: HEK293, 100 nM
T1 construct: expressed in transfected cells
T1 sequence (Q9NPH5 1-578): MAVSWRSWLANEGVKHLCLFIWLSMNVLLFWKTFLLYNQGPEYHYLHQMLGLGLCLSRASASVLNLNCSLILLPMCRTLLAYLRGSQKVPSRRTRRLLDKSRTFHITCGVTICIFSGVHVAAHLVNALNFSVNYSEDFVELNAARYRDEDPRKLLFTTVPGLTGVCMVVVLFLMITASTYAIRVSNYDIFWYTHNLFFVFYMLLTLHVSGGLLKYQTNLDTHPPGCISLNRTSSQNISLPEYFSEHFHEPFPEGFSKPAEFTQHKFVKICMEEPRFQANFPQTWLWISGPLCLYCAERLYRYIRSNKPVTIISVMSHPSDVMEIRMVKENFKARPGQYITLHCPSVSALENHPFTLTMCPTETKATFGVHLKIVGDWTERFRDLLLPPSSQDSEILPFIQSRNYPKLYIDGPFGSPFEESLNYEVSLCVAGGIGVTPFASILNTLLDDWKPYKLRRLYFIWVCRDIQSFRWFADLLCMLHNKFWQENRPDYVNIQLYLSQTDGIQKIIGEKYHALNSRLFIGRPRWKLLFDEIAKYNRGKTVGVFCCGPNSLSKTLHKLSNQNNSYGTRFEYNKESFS
T1 sequence (P13498 2-195 partner limits assumed): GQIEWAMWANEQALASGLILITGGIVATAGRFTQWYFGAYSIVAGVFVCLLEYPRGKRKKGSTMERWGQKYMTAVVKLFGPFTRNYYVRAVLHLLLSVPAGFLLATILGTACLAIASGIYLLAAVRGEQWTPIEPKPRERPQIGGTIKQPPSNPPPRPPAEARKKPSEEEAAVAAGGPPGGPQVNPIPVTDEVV
Protocol: Extracellular H2O2 measurement using Amplex™ Red Hydrogen Peroxide/Peroxidase Assay Kit (Catalog number: A22188; Invitrogen, Carlsbad, Calif., USA) was used to detect extracellular H2O2 release by HEK293 cells stably overexpressing NOX4. NOX4 clonal cells in log-phase growth were trypsinized, washed, and dispersed thoroughly. Following trypsinization, the cells (3×10^4) were resuspended in 100 μL of 1× Krebs-Ringer phosphate glucose (KRPG) buffer containing various concentrations of GKT137831 or test compounds and incubated at 37° C. for 30 min. Cells were mixed with 100 μL of Amplex Red reagent solution containing 50 μM Amplex Red and 0.1 units/mL of HRP in KRPG buffer; each assay condition was evaluated induplicate. The samples were incubated at 37° C. for 90 mins in the dark, and then centrifuged at 2,500 g for 5 mins. The supernatants were loaded to a 96 well plate, and then measured using a SpectraMax i3 Multiplate reader (Molecular Devices, Sunnyvale, Calif., USA) at 530 nm excitation and 590 nm emission respectively. DMSO and GKT137831 wells were applied as negative and positive controls, and the activities measured were set to 0 and 100, respectively.

NOX2 = target: T2, NOX2 (Homo sapiens, UniProt P04839); experiment: NOX2 HL60 cell-based assay (PMA oxidative burst, L012 chemiluminescence); conditions: DMSO-differentiated HL-60 cells, PMA-stimulated; for inhibition at 0.1 µM: HL-60, 100 nM; for inhibition at 1 µM: HL-60, 1000 nM
T2 construct: HL-60 cells, rich in NOX2 expression; endogenous in cells; host or cells: DMSO-differentiated HL-60
T2 sequence (P04839 2-570 limits assumed): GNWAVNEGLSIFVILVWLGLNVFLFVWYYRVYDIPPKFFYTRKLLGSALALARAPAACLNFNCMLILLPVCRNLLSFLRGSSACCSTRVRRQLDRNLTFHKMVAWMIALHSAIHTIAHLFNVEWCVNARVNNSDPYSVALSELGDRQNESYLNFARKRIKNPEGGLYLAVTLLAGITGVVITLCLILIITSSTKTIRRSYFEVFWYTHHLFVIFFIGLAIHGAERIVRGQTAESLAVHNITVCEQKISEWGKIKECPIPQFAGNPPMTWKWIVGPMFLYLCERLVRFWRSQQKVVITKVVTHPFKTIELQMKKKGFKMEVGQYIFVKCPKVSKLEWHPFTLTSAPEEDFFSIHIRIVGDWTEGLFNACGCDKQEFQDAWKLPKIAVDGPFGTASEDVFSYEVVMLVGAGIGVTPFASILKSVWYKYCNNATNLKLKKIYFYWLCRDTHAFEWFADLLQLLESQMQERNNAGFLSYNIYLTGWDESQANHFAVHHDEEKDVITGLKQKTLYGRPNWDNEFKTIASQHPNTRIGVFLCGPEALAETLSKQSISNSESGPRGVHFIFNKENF
T2 sequence (P13498 2-195 partner limits assumed): T1 sequence (P13498 2-195 partner limits assumed)
Protocol: NOX2 HL60 Cell-Based Assay:
HL-60 cells, rich in NOX2 expression, was stimulated to undergo oxidative burst by phorbol myristate acetate (PMA). The ROS produced during this process was measured using the O2^−-specific chemiluminescent probe L012. L012 was added to DMSO-differentiated HL-60 cell suspensions to a final concentration of 100 μM. Then, 80 μL aliquots of cell suspension (2.5×10^5 cells) were transferred to individual wells of a 96-well plate. Test compounds were directly added to the wells at the specified concentrations. Following a 30-60 mins incubation at 37° C. in the dark, the oxidative burst was initiated by the addition of 10 ng/mL PMA, and the chemiluminescence signal was recorded every 5 min over a period of 60 mins in a SpectraMax i3 Multiplate reader (Molecular Devices, Sunnyvale, Calif., USA). • NOX4 HEK293 Overexpression Cell-Based Assay: […]

NOX1 = target: T3, NOX1 (Homo sapiens, UniProt Q9Y5S8); experiment: NOX1 HT29 cell-based assay (luminol/HRP luminescence); conditions: HT29 cells, DMSO = 0%, GKT137831 = 100%; for inhibition at 0.1 µM / inhibition at 1 µM: HT-29
T3 construct: endogenous in cells; host or cells: HT29
T3 sequence (Q9Y5S8 1-564): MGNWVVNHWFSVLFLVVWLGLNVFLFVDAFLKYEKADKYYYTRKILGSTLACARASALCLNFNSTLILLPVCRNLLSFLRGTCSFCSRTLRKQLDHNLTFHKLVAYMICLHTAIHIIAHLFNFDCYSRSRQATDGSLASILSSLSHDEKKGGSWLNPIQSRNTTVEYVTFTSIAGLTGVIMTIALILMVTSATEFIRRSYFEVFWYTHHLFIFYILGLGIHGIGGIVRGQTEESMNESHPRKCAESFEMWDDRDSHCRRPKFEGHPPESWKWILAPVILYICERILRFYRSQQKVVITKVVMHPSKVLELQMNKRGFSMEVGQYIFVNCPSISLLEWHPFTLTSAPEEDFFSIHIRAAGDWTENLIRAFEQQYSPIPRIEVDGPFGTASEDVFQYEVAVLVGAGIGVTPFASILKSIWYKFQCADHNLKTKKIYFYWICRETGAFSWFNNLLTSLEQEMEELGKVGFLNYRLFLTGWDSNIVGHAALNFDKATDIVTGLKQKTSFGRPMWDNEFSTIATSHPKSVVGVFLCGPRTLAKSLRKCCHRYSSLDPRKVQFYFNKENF
T3 sequence (P13498 2-195 partner limits assumed): T1 sequence (P13498 2-195 partner limits assumed)
Protocol: NOX1 HT29 Cell-Based Assay:
HT29 cells were cultured in T75 flask (Corning) and when 70-80% confluence was reached, cells were trypsinized, harvested in HBSS and counted. 1-2×10^5 cells were dispensed into individual wells in 70 μl final volume (96-well plates, white Corning). Cells were treated for 30-60 mins at 37° C. with 10 μl of GKT137831, DMSO and test compounds from their respective assay plates. This will correspond to a final concentration of 100 nM, 1000 nM GKT137831 or test compounds, and 0.1% DMSO. 20 μL of a mixture containing 100 μM luminol plus 0.4 units of HRP (final concentration) was added. Luminescence was quantified using a SpectraMax i3 Multiplate reader (Molecular Devices, Sunnyvale, Calif., USA). As designed, compounds that inhibit NOX1 activity will reduce cellular ROS production, leading to reduced probe-ROS interactions and reduced well luminescence. Compounds were tested in duplicate at a concentration of 100 nM and 1000 nM. DMSO and GKT137831 wells were applied as negative and positive controls, and the activities measured were set to 0% and 100%, respectively.

| Structure (SMILES) | inhibition at 1 µM (NOX4) [%] | inhibition at 0.1 µM (NOX2) [%] | inhibition at 0.1 µM (NOX1; 100 nM) [%] | inhibition at 1 µM (NOX1; 1000 nM) [%] | inhibition at 0.1 µM (NOX4) [%] | inhibition at 1 µM (NOX2) [%] | % Inhibition NOX4 (NOX4; 100 nM) | % Inhibition NOX4 (NOX4; 1000 nM, 1 µM) | % Inhibition NOX2 (NOX2; 100 nM) | % Inhibition NOX2 (NOX2; 1000 nM) | % Inhibition NOX1 (NOX1; 100 nM) | % Inhibition NOX1 (NOX1; 1000 nM) | % Inhibition NOX1 (NOX1; 100 nM, 0.1 µM) | % Inhibition NOX4 (NOX4; 1000 nM) | % Inhibition NOX2 (NOX2; 100 nM, acetate, 0.1 µM) | % Inhibition NOX2 (NOX2; 1000 nM, acetate, 1 µM) |
| --- | --- | --- | --- | --- | --- | --- | --- | --- | --- | --- | --- | --- | --- | --- | --- | --- |
| COc1cc2[nH]c(-c3ccccc3Cl)c(O)c(=O)c2cc1OC [Compound 46] | – | – | – | – | – | – | B (the percent of inhibition of NOX by the compounds ranges from 50% o to 79% o) | B (the percent of inhibition of NOX by the compounds ranges from 50% o to 79% o) | D (the percent of inhibition of NOX by the compounds is smaller than or equals to 19% o) | A (the percent of inhibition of NOX by the compounds is larger than or equals to 80%) | A (the percent of inhibition of NOX by the compounds is larger than or equals to 80%) | A (the percent of inhibition of NOX by the compounds is larger than or equals to 80%) | – | – | – | – |
| COc1cc2[nH]c(-c3ccc(Cl)cc3)c(O)c(=O)c2cc1OC [Compound 8] | 50 to 79 | ≤ 19 | – | ≥ 80 | ≤ 19 | ≤ 19 | – | – | – | – | – | – | C (the percent of inhibition of NOX by the compounds ranges from 2000 to 49%) | – | – | – |
| COc1cc2[nH]c(-c3ccccc3C(F)(F)F)c(O)c(=O)c2cc1OC [Compound 43, 3-hydroxy-6,7-dimethoxy-2-(2-(trifluoromethyl)phenyl)quinolin-4(1H)-one acetate] | – | – | – | – | – | – | B (the percent of inhibition of NOX by the compounds ranges from 50% o to 79% o) | – | – | – | A (the percent of inhibition of NOX by the compounds is larger than or equals to 80%) | A (the percent of inhibition of NOX by the compounds is larger than or equals to 80%) | – | B (the percent of inhibition of NOX by the compounds ranges from 50% o to 79% o) | B (the percent of inhibition of NOX by the compounds ranges from 50% o to 79% o) | A (the percent of inhibition of NOX by the compounds is larger than or equals to 80%) |

Now from value to molecule, other results behind:

| inhibition at 1 µM (NOX4) [%] | inhibition at 0.1 µM (NOX2) [%] | inhibition at 0.1 µM (NOX1; 100 nM) [%] | inhibition at 1 µM (NOX1; 1000 nM) [%] | inhibition at 0.1 µM (NOX4) [%] | inhibition at 1 µM (NOX2) [%] | Structure (SMILES) | % Inhibition NOX4 (NOX4; 100 nM) | % Inhibition NOX4 (NOX4; 1000 nM, 1 µM) | % Inhibition NOX2 (NOX2; 100 nM) | % Inhibition NOX2 (NOX2; 1000 nM) | % Inhibition NOX1 (NOX1; 100 nM) | % Inhibition NOX1 (NOX1; 1000 nM) | % Inhibition NOX1 (NOX1; 100 nM, 0.1 µM) | % Inhibition NOX4 (NOX4; 1000 nM) | % Inhibition NOX2 (NOX2; 100 nM, acetate, 0.1 µM) | % Inhibition NOX2 (NOX2; 1000 nM, acetate, 1 µM) |
| --- | --- | --- | --- | --- | --- | --- | --- | --- | --- | --- | --- | --- | --- | --- | --- | --- |
| ≥ 80 | ≤ 19 | ≥ 80 | ≥ 80 | – | – | COc1ccc(-c2[nH]c3ccsc3c(=O)c2O)cc1 [Compound 10] | C (the percent of inhibition of NOX by the compounds ranges from 2000 to 49%) | – | – | C (the percent of inhibition of NOX by the compounds ranges from 2000 to 49%) | – | – | – | – | – | – |
| 50 to 79 | – | – | ≥ 80 | ≤ 19 | ≥ 80 | COc1cc2[nH]c(-c3ccccc3Cl)c(N)c(=O)c2cc1OC [Compound 36, 3-amino-2-(2-chlorophenyl)-6,7-dimethoxyquinolin-4(1H)-one] | – | – | C (the percent of inhibition of NOX by the compounds ranges from 2000 to 49%) | – | C (the percent of inhibition of NOX by the compounds ranges from 2000 to 49%) | – | – | – | – | – |
| – | – | ≤ 19 | 50 to 79 | ≤ 19 | – | COc1ccc(C(=O)COC(=O)c2ccc3c(=O)c(O)c(-c4ccc(OC)cc4)[nH]c3c2)cc1 [Compound 32, 2-(4-methoxyphenyl)-2-oxoethyl 3-hydroxy-2-(4-methoxyphenyl)-4-oxo-1,4-dihydroquinoline-7-carboxylate 2,2,2-trifluoroacetate] | – | – | C (the percent of inhibition of NOX by the compounds ranges from 2000 to 49%) | C (the percent of inhibition of NOX by the compounds ranges from 2000 to 49%) | – | – | – | C (the percent of inhibition of NOX by the compounds ranges from 2000 to 49%) | – | – |
